This is an account of results in patent US20070191336A1 (priority 2003, published 2007).

SMILES strings stand for the structures. Where two headings read alike, the source gives them in different places.

For test [1], the system named is LPS-induced TNF-alpha release from human peripheral blood mononuclear leukocytes. Put plainly: Human peripheral blood mononuclear leukocyte cell assay (LPS-induced TNF-alpha release, ELISA). Type of test: cell-based. The note with it: 25 ng/mL LPS, 16 hours incubation, read-out: IC50 for inhibition of TNF-alpha release. On the procedure:
The quantity of LPS-induced tumor necrosis factor-alpha (TNF-alpha) cytokine release is measured by a commercially available Enzyme-Linked Immunosorbent Assay (ELISA) kit. Test compounds are evaluated for their ability to inhibit TNF-alpha release. […] Test compounds evaluated are illustrated in Table 4.

In test [2] the target is p38 MAP kinase (unphosphorylated p38-alpha kinase) (Homo sapiens, UniProt Q16539). In words: P38 MAP kinase binding assay (fluorescence competition with SKF 86002 probe). The note with it: for Time-dependent: time-dependent if IC50 values decrease with the reaction time (more than two-fold in four hours). Here is the method:
The reaction was initiated by addition of the enzyme. […] By comparison of rfu (relative fluorescence unit) values with that of a control (in the absence of an inhibitor), the percentage of inhibition at each concentration of the inhibitor was calculated. IC50 value for the inhibitor was calculated from the % inhibition values obtained at a range of concentrations of the inhibitor using Prism. When time-dependent inhibition was assessed, the plate was read at multiple reaction times such as 0.5, 1, 2, 3, 4 and 6 hours. The IC50 values were calculated at the each time point. An inhibition was assigned as time-dependent if the IC50 values decrease with the reaction time (more than two-fold in four hours).

The target of test [3] is T1, phospho p-38 alpha kinase (Homo sapiens, UniProt Q16539).
T1 construct: purchased Panvera
Put plainly: P-38 alpha kinase assay (spectrophotometric, pyruvate kinase/lactate dehydrogenase coupled). Type of test: biochemical. The note with it: for IC50: rates from […] to 2 h time frame; for inhibition at 10 µM / % Inhibition @ concentration: at 10 uM.

Setting [4] is: read-out: % Inhibition @ concentration, Table 3.

T1 sequence (Q16539 whole entry): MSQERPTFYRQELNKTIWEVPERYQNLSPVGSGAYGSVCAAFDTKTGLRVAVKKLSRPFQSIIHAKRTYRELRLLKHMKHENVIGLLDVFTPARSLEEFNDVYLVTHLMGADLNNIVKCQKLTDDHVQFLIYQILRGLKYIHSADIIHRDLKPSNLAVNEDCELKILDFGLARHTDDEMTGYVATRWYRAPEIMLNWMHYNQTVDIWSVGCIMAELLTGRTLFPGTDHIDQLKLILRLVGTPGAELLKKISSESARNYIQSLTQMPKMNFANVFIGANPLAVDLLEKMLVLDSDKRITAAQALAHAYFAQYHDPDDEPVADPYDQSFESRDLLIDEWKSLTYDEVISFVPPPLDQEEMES
Sequence of p38 MAP kinase (unphosphorylated p38-alpha kinase) (Q16539 whole entry): as above

As for `CC(C)(C)c1cc(NC(=O)Nc2cccc3ccccc23)n(-c2cccc(CN3C(=O)CNS3(=O)=O)c2)n1` [Example 3, 1-(3-tert-butyl-1-{[3-(1,1,3-trioxo-[1,2,5]thiadiazolidin-2-yl)methyl]phenyl}-1H-pyrazol-5-yl)-3-(naphthalen-1-yl)urea], the IC50 in test [1] worked out at 6100 nM.
With `CC1(C(=O)O)CC2(C)CC(C)(C1)C(=O)N(Cc1cccc(-n3nc(C(C)(C)C)cc3NC(=O)Nc3cccc4ccccc34)c1)C2=O` (centres unmarked) [Example 11], the IC50 came out at 2150 nM in test [2] (read-out: IC50) and 953 nM in test [3] (Table 2). For the same compound, in test [2], the Time-dependent result was “No”.
On to `CC1(C(=O)O)CC2(C)CC(C)(C1)C(=O)N(Cc1cccc(-n3nc(C(C)(C)C)cc3NC(=O)Nc3ccc(Cl)cc3)c1)C2=O` (centres unmarked) [Example 12], for which, in test [2], the IC50 is about 10000 nM and the Time-dependent result is reported as “No”. In addition, the inhibition at 10 µM in test [3] (read-out: % inhibition @ concentration, Table 2) worked out at 70%.
Regarding `CC1(C)C(=O)NN(Cc2cccc(-n3nc(C(C)(C)C)cc3NC(=O)Nc3cccc4ccccc34)c2)C1=O` [Example 13, 1-(3-tert-butyl-1-{3-[(4,4-dimethyl-3,5-dioxopyrazolidin-1-yl)methyl]phenyl}-1H-pyrazol-5-yl)-3-(naphthalen-1-yl)urea], the IC50 in test [1] was 6320 nM.
In the case of `CC(C)(C)c1cc(NC(=O)Nc2cccc3ccccc23)n(-c2cccc(CC(=O)N3CCOCC3)c2)n1` [Example 21, 1-{3-tert-butyl-1-[3-(2-morpholino-2-oxoethyl)phenyl]-1H-pyrazol-5-yl}-3-(naphthalene-1-yl)urea], the IC50 in test [2] worked out at 48 nM; in test [3] (Table 2) it was 171 nM; in test [1], 3400 nM. The Time-dependent result in test [2] is given as “Yes”.
On to `CC(C)(C)c1cc(NC(=O)Nc2cccc3ccccc23)n(-c2cccc(CCC(=O)O)c2)n1` [Example 29], for which the IC50 in test [1] worked out at 2680 nM.
The same measure, in the same setting: as for `CC(C)(C)c1cc(NC(=O)Nc2cccc3ccccc23)n(-c2ccc(CCC(=O)O)cc2)n1` [Example 31, 3-{4-[3-tert-butyl-5-(3-(naphthalene-1-yl)ureido]-1H-pyrazol-1-yl}phenyl)propanonic acid], the figure is 4520 nM.
On to `CC(C)(C)c1cc(NC(=O)Nc2cccc3ccccc23)n(-c2ccc(CN)cc2)n1` [Example 45, 1-{3-tert-butyl-1-[4-(aminomethyl)phenyl]-1H-pyrazol-5-yl}-3-(naphthalen-1-yl)urea], for which the IC50 in test [2] (read-out: IC50) is 1860 nM; in test [3] (Table 2), 480 nM. Further, the Time-dependent entry in test [2] was “No”.
In the case of `CC(C)(C)c1cc(NC(=O)Nc2ccc(Br)cc2)n(-c2ccc(CO)cc2)n1` [Example 60], the half-maximal inhibitory concentration (IC50) in test [1] amounted to 2340 nM.
Take `CCOC(=O)CCc1ccc(-n2nc(C(C)(C)C)cc2NC(=O)Nc2cccc3ccccc23)cc1` [Example 296, ethyl 3-(4-(3-tert-butyl-5-(3-(naphthalen-1-yl)ureido)-1H-pyrazol-1-yl)phenyl)propanoate]: the 50% inhibitory concentration (IC50) in test [1] is 3490 nM.
Same read-out and setting: then `CC(C)(C)c1cc(NC(=O)Nc2cccc3ccccc23)n(-c2cccc(CCN3CCOCC3)c2)n1` [Example 300], with 4780 nM.
Regarding `CC(C)(C)c1cc(NC(=O)Nc2cccc(Cl)c2Cl)n(-c2ccc3c(c2)CNCC3)n1` [Example 508, 1-[3-t-butyl-(1,2,3,4-tetrahydroisoquinolin-7-yl)-1H-pyrazol-5-yl]-3-(2,3-dichlorophenyl)urea], the midpoint of inhibition in test [3] (Table 3), the IC50, lay at 52 nM.
For `CC(C)(C)c1cc(NC(=O)Nc2cccc3ccccc23)n(-c2ccc3c(c2)CNCC3)n1` [Example 509, 1-[3-t-butyl-1-(1,2,3,4-tetrahydroisoquinolin-7-yl)-1H-pyrazol-5-yl]-3-(naphthalen-1-yl)urea], in test [3] (Table 3), the half-maximal inhibitory concentration (IC50) is 500 nM.
Compound `CC(C)(C)c1cc(NC(=O)Nc2ccc(Cl)cc2)n(-c2ccc3c(c2)CNCC3)n1` [Example 510, 1-[3-t-butyl-1-(1,2,3,4-tetrahydroisoquinolin-7-yl)-1H-pyrazol-5-yl]-3-(4-chlorophenyl)urea] registered a half-maximal inhibitory concentration (IC50) in test [3] (Table 3) of 470 nM.
The same measure, in the same setting: then `Cn1[nH]c(=O)n(Cc2cccc(-n3nc(C(C)(C)C)cc3NC(=O)Nc3cccc(Cl)c3Cl)c2)c1=O` [Example 511, 1-{5-t-butyl-2-[3-(1-methyl-3,5-dioxo-[1,2,4]triazolidin-4-ylmethyl)-phenyl]-2H-pyrazol-3-yl}-3-(2,3-dichloro-phenyl)-urea], with 24 nM; and `CC(=O)N1CCc2ccc(-n3nc(C(C)(C)C)cc3NC(=O)Nc3cccc(Cl)c3Cl)cc2C1` [Example 512, 1-[1-(2-acetyl-1,2,3,4-tetrahydroisoquinolin-7-yl)-3-t-butyl-1H-pyrazol-5-yl]-3-(2,3-dichlorophenyl)urea], with 32 nM.
`CC(C)(C)c1cc(NC(=O)Nc2ccc3c(c2)OCO3)n(-c2ccc3c(c2)CNCC3)n1` [Example 513, 1-benzo[d][1,3]dioxol-5-yl-3-[3-t-butyl-1-(1,2,3,4-tetrahydroisoquinolin-7-yl)-1H-pyrazol-5-yl]urea]: the IC50 in test [3] (Table 3) is 410 nM.
Still for that read-out and setting: then `CC(C)c1cc(NC(=O)Nc2cccc3ccccc23)n(-c2ccc(C(O)C(F)(F)F)cc2)n1` (centres unmarked) [Example 514, 1-(1-(4-(2,2,2-trifluoro-1-hydroxyethyl)phenyl)-3-isopropyl-1H-pyrazol-5-yl)-3-(naphthalen-1-yl)urea], with 570 nM.
In test [3] (Table 3), `CC(C)(C)c1cc(NC(=O)Nc2ccc(Cl)cc2)n(-c2cccc(C(O)C(F)(F)F)c2)n1` (centres unmarked) [Example 516, 1-(3-t-butyl-1-(3-(2,2,2-trifluoro-1-hydroxyethyl)phenyl)-1H-pyrazol-5-yl)-3-(4-chlorophenyl)urea] registered an IC50 of 450 nM.
Take `COC(=O)COc1ccc(-n2nc(C(C)(C)C)cc2NC(=O)Nc2cccc3ccccc23)cc1` [Example 519, 1-(3-t-butyl-1-(4-(carbomethoxymethyl)oxyphenyl)-1H-pyrazol-5-yl)-3-(naphthalen-1-yl)urea]: inhibition in test [3] (Table 3) was half-maximal at 52 nM (IC50).
On the same count and under the same terms, as for `CC(C)(C)c1cc(NC(=O)Nc2cccc3ccccc23)n(-c2ccc(OCC(=O)O)cc2)n1` [Example 520, 1-(3-t-butyl-1-(4-(carboxymethyl)oxyphenyl)-1H-pyrazol-5-yl)-3-(naphthalen-1-yl)urea], the figure is 9.2 nM; as for `CC(C)(C)c1cc(NC(=O)Nc2ccccc2)n(-c2ccc(O)cc2)n1` [Example 522, 1-(3-t-butyl-1-(4-hydroxyphenyl)-1H-pyrazol-5-yl)-3-phenylurea], 780 nM.
Consider `CCOC(=O)COc1ccc(-n2nc(C(C)(C)C)cc2NC(=O)Nc2ccc(Cl)cc2)cc1` [Example 525], for which the inhibition at 1 µM in test [3] (setting [4]) came to 11%.
For the compound `CC(C)(C)c1cc(NC(=O)Nc2ccc(Cl)cc2)n(-c2ccc(OCC(=O)O)cc2)n1` [Example 526, 1-(3-t-butyl-1-(4-(carboxymethyl)oxyphenyl)-1H-pyrazol-5-yl)-3-(4-chlorophenyl-1-yl)urea], the inhibition at 0.1 µM in test [3] (read-out: % Inhibition @ concentration, Table 3, at 0.1 uM) was found to be 25%. Also, in test [3] (setting [4]), the inhibition at 1 µM is 70%.
As for `CC(C)(C)c1cc(NC(=O)Nc2cccc3ccccc23)n(-c2cccc(OCCCN3CCS(=O)(=O)CC3)c2)n1` [Example 528, 1-(5-t-butyl-2-{3-[3-(1,1-dioxo-16-thiomorpholin-4-yl)-propoxy]-phenyl}-2H-pyrazol-3-yl)-3-naphthalen-1-yl-urea], in test [3] (setting [4]), the inhibition at 1 µM was determined as 35%.
On to `CCOC(=O)CCc1cccc(-n2nc(C(F)(F)F)cc2NC(=O)Nc2ccc(Cl)cc2)c1` [Example 529, 3-(3-{5-[3-(4-chloro-phenyl)-ureido]-3-trifluoromethyl-pyrazol-1-yl}-phenyl)-propionic acid ethyl ester], for which, in test [3] (setting [4]), the inhibition at 10 µM was 40%.
As to `O=C(O)CCc1cccc(-n2nc(C(F)(F)F)cc2NC(=O)Nc2ccc(Cl)cc2)c1` [Example 530, 3-(3-(5-(3-(4-chlorophenyl)ureido)-3-(trifluoromethyl)-1H-pyrazol-1-yl)phenyl)propanoic acid], in test [3] (setting [4]), the inhibition at 10 µM amounted to 83%.
As to `CCOC(=O)CCc1cccc(-n2nc(C)cc2NC(=O)Nc2ccc(Cl)cc2)c1` [Example 531, 3-(3-{5-[3-(4-chloro-phenyl)-ureido]-3-methyl-pyrazol-1-yl}-phenyl)-propionic acid ethyl ester], the inhibition at 10 µM in test [3] (setting [4]) was determined as 14%.
`CC(C)c1cc(NC(=O)Nc2ccc(Cl)cc2)n(-c2cccc(CCC(=O)O)c2)n1` [Example 532]: the “% Inhibition @ concentration” value in test [3] (Table 3) was found to be 66% @ 10.
Consider `CC(C)c1cc(NC(=O)Nc2ccc(Cl)cc2)n(-c2cccc(CCC(=O)O)c2)n1` [Example 533, 3-(3-(5-(3-(4-chlorophenyl)ureido)-3-isopropyl-1H-pyrazol-1-yl)phenyl)propanoic acid], for which the “% Inhibition @ concentration” value in test [3] (Table 3) is recorded as 39% @ 10.
`CC(C)(C)c1cc(NC(=O)Nc2ccc(Cl)cc2)n(-c2cccc(CO)c2)n1` [Example F] displayed an IC50 in test [3] (Table 2) of 437 nM.
